Target: T1, human macrophage galactose-type lectin (hMGL) extracellular domain (Homo sapiens, UniProt Q8IUN9)
T1 sequence (Q8IUN9 with tags, fused parts or gaps isoform Q8IUN9-2): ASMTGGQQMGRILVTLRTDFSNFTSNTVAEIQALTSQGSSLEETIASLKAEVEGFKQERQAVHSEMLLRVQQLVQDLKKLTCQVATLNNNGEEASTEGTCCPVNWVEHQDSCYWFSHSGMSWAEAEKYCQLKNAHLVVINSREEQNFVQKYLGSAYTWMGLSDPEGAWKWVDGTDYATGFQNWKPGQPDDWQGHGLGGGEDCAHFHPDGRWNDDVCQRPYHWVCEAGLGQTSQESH
Assay: ITC titration of ligands into hMGL
Assay type: binding
Settings: for KA: one-set-of-sites model

[1] = ITC, buffered D2O (10 mM HEPES sodium salt, 50 mM NaCl, 2 mM CaCl2, pH 7.4), 25 °C
[2] = ITC, buffered D2O, pH 7.4, 25 °C
[3] = ITC, buffered H2O (10 mM HEPES sodium salt, 50 mM NaCl, 2 mM CaCl2, pH 7.4), 25 °C
[4] = ITC, buffered H2O, pH 7.4, 25 °C
[5] = deuterium isotope effect, DIE = H2O – D2O

## CC(=O)N[C@H]1C(O)O[C@H](CO)[C@H](O)[C@@H]1O (stereo partly drawn) [GalNAc, N-acetyl-D-galactosamine]
[1]
  Kd: 7.25 µM
  KA: 13.79 ×10^4 M^–1
[2]
  n (number of binding sites, stoichiometry): 0.97
  ΔG: –7.01 kcal mol^–1
  ΔH: –6.81 kcal mol^–1
  Δ−(TΔS): –0.20 kcal mol^–1
[3]
  Kd: 17.7 µM
  KA: 5.64 ×10^4 M^–1
[4]
  ΔG: –6.49 kcal mol^–1
  ΔH: –11.30 kcal mol^–1
  Δ−(TΔS): 4.81 kcal mol^–1
ITC, buffered H2O, pH 7.4, 25 °C, n normalized to active cell concentration of the dissociating trimer
  n (number of binding sites, stoichiometry): 0.99
[5]
  ΔΔG: 0.52 kcal mol^–1
  ΔΔH: –4.49 kcal mol^–1
  Δ−(TΔS): 5.01 kcal mol^–1
Deuterium isotope effect, DIE = H2O – D2O, listed as free glycan
  ΔΔH: −4.49 kcal mol^–1

## CC(=O)N[C@H]1[C@@H](O[C@H](C)[C@H](N)C(=O)O)O[C@H](CO)[C@H](O)[C@@H]1O [Thr-Tn]
[3]
  Kd: 16 to 17 µM

## CO[C@@H]1O[C@H](CO)[C@@H](O)[C@H](O)[C@H]1O [methyl β-glucopyranoside]
ITC, buffered H2O, 25 °C
  affinity for hMGL (result in words): no indication of a detectable affinity

## CO[C@H]1O[C@H](CO)[C@H](O)[C@H](O)[C@H]1NC(C)=O [α-Me-GalNAc, Methyl N-acetyl-α-D-galactosamine]
ITC, buffered H2O, 25 °C
  affinity relative to β-anomer and GalNAcα1-O-Thr conjugate: 2 fold

Source: paper PMC8269692 (Biochemistry, 2021)
